According to paper PMC5733001, “Biochemical and Thermodynamical Characterization of Glucose Oxidase, Invertase, and Alkaline Phosphatase Secreted by Antarctic Yeasts” (Frontiers in Molecular Biosciences, 2017):

Experiments:
[1] = tested on: T1, GOD (glucose oxidase) from G. gastrica; assay: Michaelis-Menten initial rates; peroxidase / o-dianisidine assay, […] nm; format: biochemical, Goffeauzyma gastrica; details: 64 °C, 2 M CaCl2; glucose 0.006-11 mM; O2 as co-substrate
T1 construct: native extracellular enzyme purified from yeast culture supernatant (ammonium sulfate, Superdex 75); Mr 91,000 by SDS-PAGE

[2] = tested on: T2, ALP (alkaline phosphatase) from Dioszegia sp.; assay: Michaelis-Menten initial rates; alkaline phosphatase assay kit, […] nm; format: biochemical; details: 47 °C, pH 9.0; pNPP 0.001-2 mM
T2 construct: native extracellular enzyme purified from yeast culture supernatant (ammonium sulfate, anion exchange); Mr 39,000 by SDS-PAGE

purified protein = substrate: OC[C@H]1O[C@@](CO)(O[C@H]2O[C@H](CO)[C@@H](O)[C@H](O)[C@H]2O)[C@@H](O)[C@@H]1O; assay: purified protein; format: biochemical, Hansenula anomala; details: 60 °C, pH 5.0, sucrose 1-100 mM

Question: Which Km [1] does the source give for `OC[C@H]1OC(O)[C@H](O)[C@@H](O)[C@@H]1O` (stereo partly shown) [glucose] here?
Answer: 1600 µM

Question: `O=[N+]([O-])c1ccc(OP(=O)(O)O)cc1` [p-nitrophenylphosphate] was tested. Which Km [2] did it give?
Answer: 590 µM

B1: Inv (invertase) from W. anomalus (Hansenula anomala) (protein)
chain: STEYLRPQIHLTPDQGWMNDPNGMFYDRKDKLWHVYFQHNPDKKSIWATPVTWGHSTSKDLLTWDYHGNALEPENDDEGIFSGSVVVDRNNTSGFFNDSTDPEQRIVAIYTNNAQLQTQEIAYSLDKGYSFIKYDQNPVINVNSSQQRDPKVLWHDESNQWIMVVAKTQEFKVQIYGSPDLKKWDLKSNFTSNGYLGFQYECPGLFKLPIENPLNDTVTSKWVLLLAINPGSPLGGSINEYFIGDFDGTTFHPDDGATRFMDIGKDFYAFQSFDNTEPEDGALGLAWASNWQYANTVPTENWRSSMSLVRNYTLKYVDVNPENYGLTLIQKPVYDTKETRLNETLKTLETINEYEVNDLKLDKSSFVATDFNTERNATGVFEFDLKFTQTDLKMGYSNMTTQFGLYIHSQTVKGSQETLQLVFDTLSTTWYIDRTTQHSFQRNSPVFTERISTYVEKIDTTDQGNVYTLYGVVDRNILELYFNDGSIAMTNTFFFREGKIPTSFEVVCDSEKSFITIDELSVRELARK
notes: native extracellular enzyme purified from yeast culture supernatant (ammonium sulfate, Superdex 200); Mr 101,000 by SDS-PAGE
Question: How did the Km (purified protein) turn out when B1 was run?
Answer: 78600 µM

Question: What about the Vmax (purified protein) of the same molecule?
Answer: 99500 µM/min
